In paper PMC10447463, “Data-mining unveils structure–property–activity correlation of viral infectivity enhancing self-assembling peptides” (Nature Communications, 2023):
Like-named read-outs stand apart in the source and are kept apart here.

Tests used:
[1] = system: HIV-1 infection of TZM-bl cells; assay: HIV-1 infectivity enhancement assay, β-galactosidase luminescence; assay type: cell-based; settings: for Rel-EFC / Log10 Infection Rel EFC: 1.3 µM peptide; for Rel-EFC: infection relative to EF-C (QCKIKQIINMWQ = 1); for Log10 Infection Rel EFC: log10 of infection relative to EF-C; for Log Infectivity: Log10 infection relative to EF-C, TZM-bl cells, asymmetric std dev errors; for Log10 Infection Rel EF-C: HIV-1 infection of TZM-bl cells; for Abs. Inf.: absolute infection signal, HIV-1 on TZM-bl cells, β-galactosidase luminescence; for Log10 Inf. rel. to EF-C: log10 of HIV-1 infection of TZM-bl cells relative to EF-C (EF-C = 0); for Log10 of Rel to EFC (Feb2021): Log10 of infection relative to EF-C, all peptides of FigS16
[2] = Zeta-potential measurement; assay type: physicochemical
Outline: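 PBS pH 7.4, 1 mg/mL peptide (DMSO stock), 1 d RT aggregation; diluted in 1 mM KCl pre-read; mobility → zeta (Smoluchowski); n = 3, 2 expts averaged.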

[3] = assay type: physicochemical; parameters: key to Fibril / Fibril Formation / TEM 2cat / Fibril: 1 = fibrils present; 0 non-fibrillar structures; settings: for Fibril / Fibril Formation: 1 mg/mL, uranyl acetate stain, qualitative
[4] = Turbidity, derived count rate of scattered light; assay type: physicochemical; settings: for Count Rate: derived count rate of scattered light (turbidity); for Log10 Count Rate: turbidity, derived count rate of scattered light, data of Figure 2D
[5] = Fig. S7 panel A (plotted against β-sheet content)
[6] = Fig. S7 panel B (plotted against CR), rounded to two decimals
[7] = Log10 of infection rate relative to EF-C, Figure 3A source data
[8] = infection rate relative to EF-C, log10, data of Figure 2D
[9] = infection rate relative to EF-C, log10, source data of Figure 2C
[10] = zeta-potential of peptide, source data of Figure 2C
[11] = zeta-potential of the peptide assemblies, mean, Figure 3A source data
[12] = FigS12 panel A, fibril category by TEM
[13] = TEM, 1 = fibrils present, 0 = non-fibrillar
[14] = TEM, 1 = fibrils present, 0 = non-fibrillar structures
[15] = category: fibrils present or non-fibrillar

| Substance | Rel-EFC [1] | Log10 Infection Rel EFC [1] | Log Infectivity [1, 5] | Log Infectivity [1, 6] | Log10 Infection Rel EF-C [1, 7] | Log10 Infection Rel EF-C [1, 8] | Log10 Infection Rel EF-C [1, 9] | Abs. Inf. [1] | Log10 Inf. rel. to EF-C [1] | Zeta-Pot. [2] | Zeta-Potential / mV [2, 10] | Zeta-Potential / mV [2, 11] | TEM 2cat ([3]; Fig S10 panel D) | Fibril ([3]; Fig S10 panel E) | TEM 2cat [3, 12] | Fibril / Fibril Formation ([3]; TEM) | Fibril [3, 13] | Fibril [3, 14] | Count Rate [4] | Log10 Count Rate [4] | also measured |
| --- | --- | --- | --- | --- | --- | --- | --- | --- | --- | --- | --- | --- | --- | --- | --- | --- | --- | --- | --- | --- | --- |
| RGDKIRGDKI | 0,01 | -2,13 | -2.126 | -2.13 | -2.13 | -2.126 | -2.126 | 163.3 | -2.126 | -13.57 | -7.422 mV | -13.57 mV | 0 | 0 | 0 | 0 | 0 | 0 | 285.8 | 2.456 | Fibril ([3]; FigS12 panel B, TEM): 0 |
| RGECKFKFQF | 0,33 | -0,48 | -0.4776 | -0.48 | -0.48 | -0.4776 | -0.4776 | 7411 | -0.4776 | 23.97 | 22.32 mV | 23.97 mV | 1 | 1 |  | 1 | 1 | 1 | 219.3 | 2.341 | Log10 of Rel to EFC (Feb2021) [1]: -0.48; TEM 2cat [3, 15]: 1 |
| RGEKIKIQINM | 0,24 | -0,61 | -0.6134 | -0.61 | -0.61 | -0.6134 | -0.6134 | 7838 | -0.6134 | 15.3 | 16.35 mV | 15.3 mV | 1 | 1 |  | 1 | 1 | 1 | 594.6 | 2.774 | Log10 of Rel to EFC (Feb2021) [1]: -0.61; TEM 2cat [3, 15]: 1 |
| RLRLTLC | 0,05 | -1,29 | -1.288 | -1.29 | -1.29 | -1.288 | -1.288 | 1334 | -1.288 | 19.67 | 20.73 mV | 19.67 mV | 1 | 1 | 1 | 1 | 1 | 1 | 125.6 | 2.0991 | Fibril ([3]; FigS12 panel B, TEM): 1 |
| RPRGLLLGNLR | 0,05 | -1,32 | -1.3163 |  | -1.32 | -1.3163 | -1.3163 | 716.7 | -1.3163 | -8.15 | -5.002 mV | -8.15 mV | 0 |  | 0 | 0 | 0 | 0 | 210.1 | 2.322 | Fibril ([3]; FigS12 panel B, TEM): 0 |
| SISISRRI | 0,03 | -1,55 | -1.548 | -1.55 | -1.55 | -1.548 | -1.548 | 313.3 | -1.548 | -17 | -9.316 mV | -17 mV | 0 | 0 | 0 | 0 | 0 | 0 | 25.27 | 1.403 | Fibril ([3]; FigS12 panel B, TEM): 0 |
| TKTLTKTL | 0,02 | -1,67 | -1.671 |  | -1.67 | -1.671 | -1.671 | 316.7 | -1.671 | -25.1 | -13.63 mV | -25.1 mV | 0 |  | 0 | 0 | 0 | 0 | 514.6 | 2.711 | Fibril ([3]; FigS12 panel B, TEM): 0 |
